Data from patent US9448237B2, “Modified tyrosine amino acids, peptides containing them, and their use for detecting hydrolase enzyme activity” (PAMGENE B.V., priority 2011, dated 2016).

How the values were obtained:
phosphatase PTP1B = phosphatase PTP1B (Homo sapiens, UniProt P18031); conditions: spotted with 1 mM peptide solution; one hour incubation with PTP1B in Tris-buffer containing DTT; FIG. 7
Method: After one hour incubation with phosphatase PTP1B in a Tris-buffer containing DTT, the microarray was washed and treated with a solution of PY20 antibody. […] The left image: not treated with PTP1B. The right image: treated with PTP1B.

phosphatase = conditions: FIG. 5
Method: A Tris buffer (25 μL, 50 mM, pH 7.4, modified with 0.5 mM DTT) was used to dissolve the appropriate phosphatase (20-100 ng) together with BSA (0.25 μL, 10 mg/mL), anti-nitrotyrosine antibody (0.5 μL, 0.5 mg/mL in PBS pH 7.4), FITC-goat-anti-mouse antibody (0.5 μL, 4 μg/mL). The resulting mixture was added to Pamchip® microarrays and the fluorescence imaged in real time using a Pamstation® PS12 instrument. The images were analyzed using the Bionavigator software package (Pamgene International BV, 's-Hertogenbosch, The Netherlands).
To the mixture described in Example 14, a 1 μL amount of sodium vanadate solutions with appropriate concentration was added.

Chain of phosphatase PTP1B (P18031 whole entry): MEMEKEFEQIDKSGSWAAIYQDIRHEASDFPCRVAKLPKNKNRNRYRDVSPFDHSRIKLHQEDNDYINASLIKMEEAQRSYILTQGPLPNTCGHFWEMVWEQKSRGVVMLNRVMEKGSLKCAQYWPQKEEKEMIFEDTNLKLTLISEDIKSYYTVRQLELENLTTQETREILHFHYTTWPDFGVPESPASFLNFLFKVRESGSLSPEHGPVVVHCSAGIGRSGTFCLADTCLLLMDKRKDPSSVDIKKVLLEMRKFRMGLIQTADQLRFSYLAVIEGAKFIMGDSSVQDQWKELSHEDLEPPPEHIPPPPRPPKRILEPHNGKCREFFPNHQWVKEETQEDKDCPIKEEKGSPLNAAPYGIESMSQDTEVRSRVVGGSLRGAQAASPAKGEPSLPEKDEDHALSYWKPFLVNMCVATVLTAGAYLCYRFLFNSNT

Substance | recognition as substrate and dephosphorylation by phosphatase (phosphatase PTP1B) | inhibition of the phosphatase enzyme activity (phosphatase)
H-CDADE-(3-Br-pY)-LIPQQG-NH2 [3-bromo-phosphotyrosine peptide] | recognized by the phosphatase and dephosphorylated equally well | –
sodium ortho-vanadate | – | concentration dependent inhibition
